The values below come from patent US5240934A, “Quinoline derivatives” (priority 1990, dated 1993).

One assay deals with acetylcholinesterase (Homo sapiens, UniProt P22303). Nature of the assay: Inhibitive effect on acetylcholinesterase activity (anti-acetylcholinesterase activity). The format is biochemical. The protocol:
Pharmacological action of the compound of the present invention was tested using several compounds prepared in Examples presented hereinafter and 9-amino-1,2,3,4-tetrahydroacridine (Tacrine) as a comparative compound.
Specific activities for the tested compounds were calculated using the following equation. [formula]

Assay [1] concerns Amnesia Induced by Scopolamine in Rats. As to the kind of experiment: Effects on amnesia induced by scopolamine in rats (passive avoidance test). Type of assay: in vivo, Male Wister rats. The conditions noted are these: p.o., 15 min after scopolamine hydrochloride 0.5 mg/kg i.p. The protocol: Male Wister rats, 8 week old, were used as subjects. A conventional two-compartment box was used for the passive avoidance test.
Tested compounds were given p.o. 15 minutes after scopolamine hydrochloride (0.5 mg/kg, i.p.). At 15 minutes after the tested compound treatment, scrambled foot-schock (0.5 mA for 3 seconds) was applied to the rat immediately after entry into the dark compartment. Retention was measured 24 hours after the training and was expressed as the mean latency to enter the dark compartment, with a cut-off point at 600 seconds. Percent improvement for the tested compounds was evaluated taking the difference between the retention latency of the untreated group and that of the control group as 100%.

The subject of assay [2] is Amnesia Induced by Scopolamine in Mice. As to the kind of experiment: Effects on amnesia induced by scopolamine in mice (passive avoidance test). The conditions noted are these: p.o., 30 min before scopolamine 1 mg/kg i.p. The format is in vivo, Male ddy mice. The protocol: Male ddy mice, 6-7 week old, were used as subjects. A conventional two-compartment box was used for the passive avoidance test.
Tested compounds were given p.o. 30 minutes before scopolamine (1 mg/kg, i.p.). At 30 minutes after the scopolamine treatment, scrambled foot-schock (2 mA for 3 seconds) was applied to the mouse immediately after entry into the dark compartment. Retention was measured 6 hours after the training and was expressed as the mean latency to enter the dark compartment, with a cut-off point at 300 seconds. Percent improvement for the tested compounds were evaluated taking the difference between the retention latency of the untreated group and that of the control group as 100%.

Assay [3] concerns senile dementia patients of Alzheimer type. The conditions noted are these: Tacrine and lecithin; The New England Journal of Medicine, 315, 1241 (1986); cited from earlier work.

Counter-ions that a name gives are not always drawn.

Chain of acetylcholinesterase (P22303 32-614): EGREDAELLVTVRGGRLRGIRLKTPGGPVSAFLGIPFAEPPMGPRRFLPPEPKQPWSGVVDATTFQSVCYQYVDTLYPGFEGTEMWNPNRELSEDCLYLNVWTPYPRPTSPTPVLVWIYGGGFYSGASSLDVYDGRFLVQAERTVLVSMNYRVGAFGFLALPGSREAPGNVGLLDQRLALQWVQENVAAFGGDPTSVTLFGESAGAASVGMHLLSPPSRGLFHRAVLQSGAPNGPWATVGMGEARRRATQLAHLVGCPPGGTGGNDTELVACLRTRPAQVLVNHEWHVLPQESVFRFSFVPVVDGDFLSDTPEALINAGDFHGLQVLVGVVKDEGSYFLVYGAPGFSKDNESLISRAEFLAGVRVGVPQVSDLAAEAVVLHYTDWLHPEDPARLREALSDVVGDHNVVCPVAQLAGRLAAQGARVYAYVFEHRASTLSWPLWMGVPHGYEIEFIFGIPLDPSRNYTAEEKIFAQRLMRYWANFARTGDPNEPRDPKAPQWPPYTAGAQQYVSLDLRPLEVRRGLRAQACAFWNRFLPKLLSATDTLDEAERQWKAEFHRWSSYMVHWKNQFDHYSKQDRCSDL

As for `Nc1c2c(nc3ccccc13)CCC(CCCCC1CCN(Cc3ccccc3)CC1)C2=O` (stereo not drawn) [Compound 46, 9-Amino-2-(4-(1-benzylpiperidin-4-yl)butyl)-1,2,3,4-tetrahydroacridin-1-onedihydrochloride], the “Anti-acetylcholinesterase Activity (Specific Activity)” value (“Anti-acetylcholinesterase Activity” below) at acetylcholinesterase is 47.62. Further, the “Percent Improvement” value in assay [1] (0.1 mg/kg) turned out to be 32.3%; in assay [1] (0.3 mg/kg), 39.1%.

Consider `Cl.Cl.Nc1c2c(nc3ccccc13)CCC(CCC1CCN(Cc3ccccc3)CC1)C2=O` (stereo not drawn) [Compound 14, 9-amino-2-(2-(1-benzylpiperidin-4-yl)ethyl)-1,2,3,4-tetrahydroacridin-1-one dihydrochloride], for which, at acetylcholinesterase, the “Anti-acetylcholinesterase Activity” value came to 5.00. In addition, the “Percent Improvement” value in assay [2] (0.03 mg/kg) was determined as 50.0%; in assay [2] (0.1 mg/kg), 71.9%; in assay [1] (0.1 mg/kg), 0%; in assay [1] (0.3 mg/kg), 50.8%.

Consider `N#Cc1ccccc1NC1=CC(=O)N(CCCC2CCN(Cc3ccccc3)CC2)C1` [Compound 3, N-(1-(4-(1-benzylpiperidyl)propyl)-2-oxo-3-pyrrolin-4-yl)-2-aminobenzonitrile], for which the “Anti-acetylcholinesterase Activity” value on acetylcholinesterase stood at 13.5. For the same compound, the “Percent Improvement” value in assay [2] (0.1 mg/kg) is 16.0%; in assay [2] (0.3 mg/kg), 53.4%.

Regarding `O=C1c2c(nc3ccccc3c2O)CN1CCC1CCN(Cc2ccccc2)CC1` [Compound 61, 9-hydroxy-2-(4-(1-benzylpiperidyl)ethyl)-2,3-dihydropyrrolo[3,4-b]quinolin-1-one], the “Percent Improvement” value in assay [1] (0.03 mg/kg) came to 33.0%; in assay [1] (0.1 mg/kg), 86.1%; in assay [1] (0.3 mg/kg) it was 86.5%.

In the case of `Nc1c2c(nc3ccccc13)CN(CCC1CCN(Cc3ccccc3)CC1)C2=O` [Compound 7, 9-Amino-2-(4-(1-benzylpiperidyl)ethyl)-2,3-dihydropyrrolo-[3,4-b]quinolin-1-one], the “Anti-acetylcholinesterase Activity” value at acetylcholinesterase was found to be 1.94. The “Percent Improvement” value in assay [2] (0.03 mg/kg) is 52.0%; in assay [2] (0.1 mg/kg), 70.2%; in assay [1] (0.03 mg/kg), 36.1%; in assay [1] (0.1 mg/kg) it was 68.9%; in assay [1] (0.3 mg/kg) it was 69.8%.

Consider `N#Cc1ccccc1NC1=CC(=O)N(CCC2CCN(Cc3ccccc3)CC2)C1` [Compound 2, N-(1-(4-(1-benzylpiperidyl)ethyl)-2-oxo-3-pyrrolin-4-yl)-2-aminobenzonitrile], for which, on acetylcholinesterase, the “Anti-acetylcholinesterase Activity” value is 7.7. For the same compound, the “Percent Improvement” value in assay [2] (0.01 mg/kg) worked out at 10.0%; in assay [2] (0.3 mg/kg), 72.8%.

Consider `Nc1c2c(nc3ccccc13)CCCC2` [Tacrine, 9-amino-1,2,3,4-tetrahydroacridine, reference compound], for which the entries for the “Percent Improvement” value in assay [2] (0.1 mg/kg) and in assay [2] (1.0 mg/kg) were 0% and 26.9%, respectively. The “improvement in symptoms of senile dementia patients of Alzheimer type” value in assay [3] is “effectiveness”.

In the case of `COc1c2c(nc3ccccc13)CN(CCC1CCN(Cc3ccccc3)CC1)C2=O` [Compound 67, 9-methoxy-2-(4-(1-benzylpiperidyl)ethyl)-2,3-dihydropyrrolo[3,4-b]quinolin-1-one], at acetylcholinesterase, the “Anti-acetylcholinesterase Activity” value was determined as 9.52. Further, the “Percent Improvement” value in assay [1] (0.03 mg/kg) turned out to be 50.4%; in assay [1] (0.1 mg/kg), 92.0%; in assay [1] (0.3 mg/kg), 95.8%.
